Experiments:
[1] = tested on: MCF10A normal breast epithelial cells; assay: SRB cell proliferation assay, MCF10A; format: cell-based, human; details: Homo sapiens, MCF-10A, 72 h
Description: Human breast epithelial cell line (MCF10A) and human TNBC cell lines (MDA-MB-468, MDA-MB-231, Hs578T, and HCC38 cells) were provided by the American Type Culture Collection (Manassas, VA, USA). MCF10A cells were cultured in Dulbecco’s Modified Eagle’s Medium/Nutrient Mixture F-12 containing 5% donor horse serum, 100 ng/mL cholera toxin, 10 µg/mL human insulin, 20 ng/mL epidermal growth factor, 0.5 µg/mL hydrocortisone, and penicillin-streptomycin (sodium penicillin G: 100 units/mL; streptomycin: 100 μg/mL). The TNBC cells were cultured in medium [Dulbecco’s Modified Eagle’s Medium for MDA-MB-468, MDA-MB-231, and Hs578T cells; Roswell Park Memorial Institute 1640 medium for HCC38 cells] supplemented with penicillin-streptomycin and 10% fetal bovine serum at 37 °C in a humidified incubator with 5% carbon dioxide. MCF10A cells were cultured in DMEM/F12 containing 5% donor horse serum, 100 ng/mL cholera toxin, 10 µg/mL human insulin, 20 ng/mL epidermal growth factor, 0.5 µg/mL hydrocortisone and penicillin-streptomycin. All reagents used for cell culture, including culture medium, fetal bovine serum, trypsin-EDTA solution (1×), and penicillin-streptomycin solution (100×), were purchased from Gibco (Grand Island, NE, USA). Laemmli sample buffer (2×) and 2-mercaptoethanol were purchased from Bio-Rad Laboratories, Inc. (Hercules, CA, USA). EPZ-5676 was purchased from Cayman Chemical (Ann Arbor, MI, USA). Dimethyl sulfoxide (DMSO), bicinchoninic acid, copper (II) sulfate solution, bovine serum albumin (BSA), trichloroacetic acid, sulforhodamine B (SRB), and paclitaxel were purchased from Sigma–Aldrich (St. Louis, MO, USA).
Cell proliferation was evaluated using the SRB assay. Briefly, cells were seeded in 96-well plates and incubated for 30 min (for 0-day controls) or treated with test compounds for the times indicated. After incubation, the cells were fixed, dried, and stained with 0.4% (w/v) SRB in 1% (v/v) acetic acid solution. Unbound dye was removed by washing, and stained cells were dissolved in 10 mM Tris (pH 10.0). Cell proliferation was then determined by measuring the absorbance at 515 nm.

[2] = tested on: MDA-MB-231/Luc cells-implanted orthotopic mouse model; assay: MDA-MB-231/Luc-implanted orthotopic mouse tumor model; format: in vivo; details: for tumor growth inhibition rate: end of experiment
Description: All animal experiments were conducted following the guidelines approved by the Seoul National University Institutional Animal Care and Use Committee (IACUC; permission number: SNU-180430-4-1). Female nude mice (BALB/c-nu), 4 weeks old, were purchased from Central Laboratory Animal, Inc. (Seoul, Korea) and housed under pathogen-free conditions with a 12 h light-dark schedule. Luciferase expressing MDA-MB-231 cells were inoculated orthotopically into the fourth fat pad of mice (1 × 10^7 cells in 100 μL of 50:50 PBS/Matrigel) using a 29-gauge needle. Two weeks after implantation, mice were randomized into vehicle control and treatment groups of six animals per group and were administered with vehicle (EtOH/Cremophor/Normal saline = 5:5:90), 9l (10 or 30 mg/kg body weight), EPZ-5676 (30 mg/kg body weight), or paclitaxel (5 mg/kg body weight, Sigma-Aldrich) as a positive reference control. Compounds were administered intraperitoneally three times per week for 38 days. An additional week later, anesthetized mice were positioned in IVIS (PerkinElmer, Waltham, MA, USA) and were imaged 15 min after injection of 150 mg/kg D-luciferin (Gold Biotechnology, St. Louis, MO, USA) resuspended in DPBS (w/o calcium or magnesium). Mice were euthanized and primary tumors and lungs were excised, weighed, and frozen for further biochemical analysis. The length (L), width (W), and height (H) of the tumors were also measured using a digital slide caliper (Mitutoyo, Kawasaki, Japan) once a week, and tumor volumes (mm^3) were estimated by the formula LWH/2. Toxicity was evaluated based on body weight loss.
A portion of the frozen tumors excised from nude mice on the termination day of the experiment was homogenized using a hand-held homogenizer in complete lysis buffer (Active Motif, Carlsbad, CA, USA). Aliquots were stored at −80 °C, and the levels of protein expression in the tumor lysates were determined. The protein concentrations in the tumor lysates were measured using the Bradford assay.

[3] = tested on: MDA-MB-231 cells; assay: Transwell cell invasion assay; format: cell-based, human; details: 24 h pretreatment, 24 h Transwell
Description: Twenty-four-well Transwell membrane inserts (diameter: 6.5 mm, pore size: 8 μm; Corning, Tewksbury, MA, USA) were each coated with 10 μL of type I collagen (0.5 mg/mL, BD Biosciences, San Diego, CA, USA) and 20 μL of a 1:20 mixture of Matrigel (BD Biosciences) in PBS. After treatment with the indicated compounds for 24 h, MDA-MB-231 human TNBC cells were harvested, resuspended in serum-free medium, and plated (2 × 10^5 cells/chamber) in the upper chambers of the Matrigel-coated Transwell inserts. Medium containing 30% FBS was used as a chemoattractant in the lower chambers. After a 24 h incubation, the cells that had migrated to the outer surfaces of the lower chambers were fixed and stained using the Diff-Quik Staining Kit (Sysmex, Kobe, Japan) and imaged using a Vectra 3.0 Automated Quantitative Pathology Imaging System (Perkin Elmer, Waltham, MA, USA). Representative images from three separate experiments are shown, and the numbers of invaded cells were counted in 5 randomly selected microscopic fields (200× magnification).

[4] = tested on: MDA-MB-231 cells; assay: Wound healing assay (cell migration); format: cell-based, human; details: 24 h
Description: MDA-MB-231 human TNBC cells were grown to 90% confluence in a 6-well plate. Subsequently, each cell monolayer was artificially wounded using a Scratcher (SPL Life Sciences, Pocheon, Republic of Korea), and the detached cells were removed by washing with phosphate-buffered saline (PBS, Invitrogen Corp., Carlsbad, CA, USA). The wounded cultures were then incubated with medium containing 1% FBS and various concentrations of 9l and PsA for 24 h. The wounds were photographed at 0 and 24 h under an inverted microscope (Olympus, Tokyo, Japan). The wound areas were quantified using ImageJ software (National Institutes of Health, Bethesda, MD, USA) and presented as the percent wound healing (%) relative to the wound area at 0 h.

[5] = IVIS imaging, vs vehicle-treated control
[6] = western blotting of tumor lysates

CC(C)(C)c1ccc(C/C(=N\O)C(=O)NCC[Se]Sc2ccccc2)cc1 [9l, (E)-3-(4-(tert-Butyl)phenyl)-2-(hydroxyimino)-N-(2-((phenylthio)selanyl)ethyl)propanamide]
IC50 [1]: 25.9 µM
tumor growth inhibition rate ([2]; 10 mg/kg i.p., three times per week for 38 days): 44.0%
tumor growth inhibition rate ([2]; 30 mg/kg i.p., three times per week for 38 days): 55.8%
toxicity / body weight change ([2]; 10 or 30 mg/kg i.p., three times per week for 38 days): No overt toxicity or changes in body weight
luminescence signal intensity from the primary tumor sites [2, 5]: decreased
luminescence signal intensity in excised lung tissues (lung metastasis) [2, 5]: efficiently suppressed
E-cadherin level in excised tumors [2, 6]: upregulated
H3K79me2 protein level in excised tumors [2, 6]: downregulated
Ki-67 expression in tumor tissues [2, 6]: significantly suppressed
N-cadherin protein level in excised tumors [2, 6]: downregulated
vimentin protein level in excised tumors [2, 6]: downregulated
cell invasion [3]: significantly inhibited
wound closure (cell migration) [4]: significantly inhibited
